Measured values taken from patent US9763956B2, “Diagnostic and treatment methods in subjects having or at risk of developing resistance to cancer therapy” (The Broad Institute, Inc., priority 2012, dated 2017).
“Also recorded” adds a separate entry of the source.

Experiments:
[1] = system: Notch inhibitor resistant (persister) T-ALL cell lines; assay: Cell viability / proliferation (Celltiterglo luminescence); assay type: cell-based, human; details: compared to naïve cells, viability read on day 6
Experimental: (§1) Notch inhibitor sensitive and resistant T-ALL cell lines were plated in 96 well plates and treated with vehicle, 1 uM GSI and/or increasing concentrations of the bet inhibitor JQ1. Cell viability was determined by measuring luminescence after Celltiterglo® (Promega) addition on day 6. Apoptosis was measured using Caspaseglo® (Promega) on day 4.

MYC in persister cells = assay: MYC expression, Western blot (FIG. 17A); assay type: cell-based, human
Experimental: (§2) FIG. 17A is two photographs of western blots show MYC expression in naïve and persister cells after 3 day treatment with 2 μM AKT inhibitor, MK-2206, or 10 nM mTOR inhibitor, Rapamycin. FIG. 17B depicts graphs showing BRD4 binding at the MYC and BCL2 promoters.

MYC in naïve T-ALL cells = assay: MYC expression, Western blot (FIG. 12B, 17A); assay type: cell-based, human
Experimental: as §2

[2] = system: Notch inhibitor sensitive (naïve) T-ALL cell lines; assay: Cell viability / proliferation (Celltiterglo luminescence); assay type: cell-based, human; details: JQ1 concentrations that arrest persisters
Experimental: as §1

[3] = Gastrointestinal toxicity, Periodic acid-Schiff (PAS) stain in Balb/c mice; assay type: in vivo, mouse; details: JQ1 given in addition to DBZ
Experimental: Balb/c mice were treated with DBZ+JQ1, DBZ, or vehicle alone. Hyperproliferation of globlet cells was measured by Periodic acid-Schiff (PAS) stain.

[4] = system: Bcl-2 in GSI resistant leukemia cells; assay: Bcl-2 protein level, Western blot (FIG. 9B); assay type: cell-based, human; details: GSI resistant (persister) cells
[5] = system: Bcl-2 in naïve leukemia cells; assay: Bcl-2 protein level, Western blot (FIG. 9B); assay type: cell-based, human; details: naïve population
[6] = system: Notch inhibitor resistant T-ALL cell lines; assay: Apoptosis (Caspaseglo); assay type: cell-based, human; details: resistant leukemia cells compared to naïve; day 4
Experimental: as §1

[7] = system: Notch inhibitor sensitive T-ALL cell lines; assay: Long-term culture of Notch inhibitor sensitive T-ALL cell lines with GSI (resistance modeling); assay type: cell-based, human
Experimental: Notch inhibitor sensitive T-ALL cell lines were cultured in the presence of 1 μM GSI in vitro. Cells were plated at 0.25×10^6/ml in 20 mL and split every 3-4 days. Cell viability, cell size and cell cycle were measured every 3-4 days. […] GSI-treated cells stopped proliferating between day 14 to 30 of culture, but eventually started proliferating again despite the presence of GSI with subsequent growth rates being equal or similar to untreated cells.

In the case of `Cc1sc2c(c1C)C(c1ccc(Cl)cc1)=N[C@@H](CC(=O)OC(C)(C)C)c1nnc(C)n1-2` (single isomer, unassigned) [JQ1 enantiomer], the “proliferation / survival of resistant (persister) leukemia cells” value (shortened to “proliferation / survival of resistant”) [1] is reported as “no effect”.
For `CN(C)CC[C@H](CSc1ccccc1)Nc1ccc(S(=O)(=O)NC(=O)c2ccc(N3CCN(Cc4ccccc4-c4ccc(Cl)cc4)CC3)cc2)cc1[N+](=O)[O-]` [ABT-737], the “proliferation / survival of resistant” value [1] was “effectively killed persister cells”.
In the case of `Cc1sc2c(c1C)C(c1ccc(Cl)cc1)=N[C@@H](CC(=O)OC(C)(C)C)c1nnc(C)n1-2` [JQ1], the MYC expression (MYC in persister cells) is reported as “significantly reduced MYC expression”, the MYC expression (MYC in naïve T-ALL cells) is reported as “did not alter MYC” and the “proliferation / survival of resistant” value [1] is reported as “decrease in proliferation; also recorded: proliferation arrest”. For the same compound, the “proliferation of naïve T-ALL cells” value [2] was “well tolerated”, the “intestinal villi architecture (PAS stain)” value [3] was “largely ameliorated villi architecture” and the “Bcl-2 protein level / expression” value [4] was “inhibited; also recorded: decreased level of Bcl-2 protein; also recorded: significantly reduced Bcl-2 expression”. For the same compound, the Bcl-2 expression [5] was “little effect” and the apoptosis [6] was “increase in apoptosis”.
For `C[C@H](NC(=O)Cc1cc(F)cc(F)c1)C(=O)N[C@H]1N=C(c2ccccc2)c2ccccc2N(C)C1=O` [compound E], the “GSI concentration tolerated by persister cells relative to the IC50” value [7] was “more than 50 fold”.
